From ChEMBL document CHEMBL5506017, “Brain-Permeable Immunoproteasome-Targeting Macrocyclic Peptide Epoxyketones for Alzheimer's Disease” (J Med Chem, 2024)
pIC50: −log10 of the molar value. Activity calls are given as the source filed them. The calls are words filed in the database; no cut-off is given here.

Legend:
[1] = biological target: T1, Proteasome subunit beta type-9 (Homo sapiens, UniProt P28065); assay: Inhibition of human LMP2 using Ac-PAL-AMC as substrate incubated for 1 hr by fluorescence based SpectraMax M5e plate reader
T1 sequence (P28065 whole entry): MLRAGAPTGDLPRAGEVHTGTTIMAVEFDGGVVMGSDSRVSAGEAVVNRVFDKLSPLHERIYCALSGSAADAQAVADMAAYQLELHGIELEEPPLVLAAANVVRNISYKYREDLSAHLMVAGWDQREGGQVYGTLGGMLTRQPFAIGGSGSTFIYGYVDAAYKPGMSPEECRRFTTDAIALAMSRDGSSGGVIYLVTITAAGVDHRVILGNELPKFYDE

[2] = Metabolic stability in human liver microsomes assessed as half life at 2 uM measured upto 60 mins by LC-MS/MS analysis; assay type: ADME, Microsome; details: 1 h
[3] = Metabolic stability in human liver microsomes assessed as parent compound remaining at 2 uM measured at 60 mins by LC-MS/MS analysis; assay type: ADME, Microsome; details: 1 h
[4] = Efflux ratio of apparent permeability across basolateral to apical side over apical to basolateral side in human Caco-2 cells expressing Pgp/BCRP at 10 uM incubated for 120 mins by LC-MS/MS analysis; assay type: ADME, cell-based; details: caco-2, 2 h
[5] = Cytotoxicity against human HMC3 cells assessed as reduction in cell viability incubated for 96 hrs by CellTiter 96 Aqueous One Solution Cell Proliferation Assay; assay type: toxicity, cell-based
[6] = Cytotoxicity against human ARPE-19 cells assessed as reduction in cell viability incubated for 96 hrs by CellTiter 96 Aqueous One Solution Cell Proliferation Assay; assay type: toxicity, cell-based
[7] = Mutagenicity in Salmonella typhimurium TA98 at 0.01 to 100 uM incubated for 90 mins in absence of liver S9 fraction by AMES test; assay type: toxicity; details: salmonella enterica subsp. enterica serovar typhimurium, s9, 1.5 h, dose 0.01-100 µM
[8] = Mutagenicity in Salmonella typhimurium TA98 at 0.01 to 100 uM incubated for 90 mins in presence of liver S9 fraction by AMES test; assay type: toxicity, subcellular; details: salmonella enterica subsp. enterica serovar typhimurium, s9, 1.5 h, dose 0.01-100 µM
[9] = Mutagenicity in Salmonella typhimurium TA100 at 0.01 to 100 uM incubated for 90 mins in absence of liver S9 fraction by AMES test; assay type: toxicity; details: salmonella enterica subsp. enterica serovar typhimurium, s9, 1.5 h, dose 0.01-100 µM
[10] = biological target: T2, Proteasome subunit beta type-9 (Mus musculus) (UniProt P28076); assay: Inhibition of LMP2 in mouse BV-2 cells using Ac-PAL-AMC as substrate at 0.3 to 1 uM measured after 24 hrs by fluorescence based SpectraMax M5e plate reader; assay type: cell-based; details: dose 0.3-1 µM
T2 sequence (whole entry): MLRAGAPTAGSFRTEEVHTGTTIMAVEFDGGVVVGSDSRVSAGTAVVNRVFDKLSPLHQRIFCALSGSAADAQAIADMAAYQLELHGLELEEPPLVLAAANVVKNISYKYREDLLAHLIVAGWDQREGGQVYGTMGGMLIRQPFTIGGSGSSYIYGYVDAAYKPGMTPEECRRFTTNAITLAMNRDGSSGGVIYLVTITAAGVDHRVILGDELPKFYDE

[11] = AUC (0 to last) in BALB/c mouse at 40 mg/kg, iv measured upto 1440 mins by LC-MS/MS analysis; assay type: ADME, organism-based; details: in vivo, 24 h
[12] = AUC infinity in BALB/c mouse at 40 mg/kg, iv measured upto 1440 mins by LC-MS/MS analysis; assay type: ADME, organism-based; details: in vivo, 24 h
[13] = Tmax in BALB/c mouse at 40 mg/kg, iv measured upto 1440 mins by LC-MS/MS analysis; assay type: ADME, organism-based; details: in vivo, 24 h
[14] = Half life in BALB/c mouse at 40 mg/kg, iv measured upto 1440 mins by LC-MS/MS analysis; assay type: ADME, organism-based; details: in vivo, 24 h
[15] = Clearance in BALB/c mouse at 40 mg/kg, iv measured upto 1440 mins by LC-MS/MS analysis; assay type: ADME, organism-based; details: in vivo, 24 h
[16] = Volume of distribution at steady state in BALB/c mouse at 40 mg/kg, iv measured upto 1440 mins by LC-MS/MS analysis; assay type: ADME, organism-based; details: in vivo, 24 h
[17] = AUC (0 to last) in BALB/c mouse at 150 mg/kg, po measured after 15 to 360 mins by LC-MS/MS analysis; assay type: ADME, organism-based; details: in vivo, time 15-360 min
[18] = AUC infinity in BALB/c mouse at 150 mg/kg, po measured after 15 to 360 mins by LC-MS/MS analysis; assay type: ADME, organism-based; details: in vivo, time 15-360 min
[19] = Tmax in BALB/c mouse at 150 mg/kg, po measured after 15 to 360 mins by LC-MS/MS analysis; assay type: ADME, organism-based; details: in vivo, time 15-360 min
[20] = Protein binding in human plasma assessed as unbound fraction; assay type: ADME, cell-free
[21] = Unbound clearance in human plasma; assay type: ADME, cell-free
[22] = Stability in human plasma; assay type: ADME, cell-free
[23] = Drug recovery in human plasma; assay type: ADME, cell-free
[24] = Tmax in BALB/c mouse plasma at 40 mg/kg, iv measured upto 1440 mins by LC-MS/MS analysis; assay type: ADME, organism-based
[25] = Toxicity in BALB/c mouse assessed as effect on weight loss at 40 mg/kg, iv; assay type: organism-based; details: in vivo
[26] = Toxicity in BALB/c mouse assessed as effect on hair loss at 40 mg/kg, iv; assay type: organism-based; details: in vivo
[27] = Toxicity in BALB/c mouse assessed as paralysis at 40 mg/kg, iv; assay type: organism-based; details: in vivo
[28] = Toxicity in BALB/c mouse assessed as tremor at 40 mg/kg, iv; assay type: organism-based; details: in vivo
[29] = Toxicity in BALB/c mouse assessed as effect on weight loss at 100 mg/kg, po; assay type: organism-based; details: in vivo
[30] = Toxicity in BALB/c mouse assessed as paralysis at 100 mg/kg, po; assay type: organism-based; details: in vivo
[31] = Toxicity in BALB/c mouse assessed as tremor at 100 mg/kg, po; assay type: organism-based; details: in vivo
[32] = Toxicity in BALB/c mouse at 100 mg/kg, iv measured for 72 hrs; assay type: organism-based; details: in vivo
[33] = Drug uptake in BALB/c mouse kidney at 40 mg/kg, iv measured after 2 hrs; assay type: ADME, organism-based; details: in vivo
[34] = Drug uptake in BALB/c mouse spleen at 40 mg/kg, iv measured after 2 hrs; assay type: ADME, organism-based; details: in vivo
[35] = Drug uptake in BALB/c mouse lung at 40 mg/kg, iv measured after 2 hrs; assay type: ADME, organism-based; details: in vivo
[36] = In vivo inhibition of LMP2 activity in BALB/c mouse brain at 40 mg/kg, iv measured after 2 hrs relative to control; assay type: functional
[37] = In vivo inhibition of LMP2 activity in BALB/c mouse brain at 40 mg/kg, iv measured after 24 hrs relative to control; assay type: functional
[38] = In vivo inhibition of LMP2 activity in BALB/c mouse brain at 100 mg/kg, iv measured after 24 hrs relative to control; assay type: functional
[39] = In vivo inhibition of LMP2 activity in BALB/c mouse brain at 150 mg/kg, po measured after 6 hrs post dose relative to control; assay type: functional
[40] = In vivo inhibition of LMP2 activity in BALB/c mouse blood at 150 mg/kg, po measured after 6 hrs post dose relative to control; assay type: functional

pIC50 [1]: 7.06 | t1/2 [2]: 38.4 min | Stability [3]: 33% | Ratio [4]: 2.62 | inhibition [10]: Active | AUClast [11]: 9689 ng·h/mL | AUC [12]: 9689 ng·h/mL | Tmax [13]: 4.98 min | t1/2 [14]: 25.2 min | CL [15]: 70.88 mL/min/kg | Vdss [16]: 2.572 L/kg | AUClast [17]: 3553 ng·h/mL | AUC [18]: 3571 ng·h/mL | Tmax [19]: 20 min | Fu [20]: 0.45% | CL free [21]: 72 mL/min/kg | Stability [22]: 78% | Drug recovery [23]: 74% | Tmax [24]: 15 min | Drug uptake [33]: Active | Drug uptake [34]: Active | Drug uptake [35]: Not Active
Structure (SMILES): CC(C)C[C@H](NC(=O)[C@@H]1COCCCCCC(=O)N2C[C@H](F)C[C@H]2C(=O)N1)C(=O)[C@@]1(C)CO1
IC50 at 96 h [5]: > 100 µM | IC50 at 96 h [6]: > 100 µM | Activity [7]: Non-Toxic | Activity [8]: Non-Toxic | Activity [9]: Non-Toxic | Activity [25]: Non-Toxic | Activity [26]: Non-Toxic | Activity [27]: Non-Toxic | Activity [28]: Non-Toxic | Activity [29]: Non-Toxic | Activity [30]: Non-Toxic | Activity [31]: Non-Toxic | Activity [32]: Non-Toxic | inhibition in vivo at 40 mg/kg [36]: 56% | inhibition in vivo at 40 mg/kg [37]: 39% | inhibition in vivo at 100 mg/kg [38]: 65% | inhibition in vivo at 150 mg/kg [39]: 21% | inhibition in vivo at 150 mg/kg [40]: 90%
